Data as given in US11339150B2, “Benzimidazole compounds as HDAC6 inhibitors” (OnKure, Inc., priority 2019, dated 2022).

How the values were obtained:
[1] = Pharmacokinetic evaluation in male CD1 mice; conditions: mouse, in vivo, po, 10 mg/kg (p.o.)
[2] = target: T1, HDAC6 (Homo sapiens, UniProt Q9UBN7); experiment: HDAC assay (fluorogenic substrate), HDAC6; type: biochemical
T1 sequence (Q9UBN7 1-1215): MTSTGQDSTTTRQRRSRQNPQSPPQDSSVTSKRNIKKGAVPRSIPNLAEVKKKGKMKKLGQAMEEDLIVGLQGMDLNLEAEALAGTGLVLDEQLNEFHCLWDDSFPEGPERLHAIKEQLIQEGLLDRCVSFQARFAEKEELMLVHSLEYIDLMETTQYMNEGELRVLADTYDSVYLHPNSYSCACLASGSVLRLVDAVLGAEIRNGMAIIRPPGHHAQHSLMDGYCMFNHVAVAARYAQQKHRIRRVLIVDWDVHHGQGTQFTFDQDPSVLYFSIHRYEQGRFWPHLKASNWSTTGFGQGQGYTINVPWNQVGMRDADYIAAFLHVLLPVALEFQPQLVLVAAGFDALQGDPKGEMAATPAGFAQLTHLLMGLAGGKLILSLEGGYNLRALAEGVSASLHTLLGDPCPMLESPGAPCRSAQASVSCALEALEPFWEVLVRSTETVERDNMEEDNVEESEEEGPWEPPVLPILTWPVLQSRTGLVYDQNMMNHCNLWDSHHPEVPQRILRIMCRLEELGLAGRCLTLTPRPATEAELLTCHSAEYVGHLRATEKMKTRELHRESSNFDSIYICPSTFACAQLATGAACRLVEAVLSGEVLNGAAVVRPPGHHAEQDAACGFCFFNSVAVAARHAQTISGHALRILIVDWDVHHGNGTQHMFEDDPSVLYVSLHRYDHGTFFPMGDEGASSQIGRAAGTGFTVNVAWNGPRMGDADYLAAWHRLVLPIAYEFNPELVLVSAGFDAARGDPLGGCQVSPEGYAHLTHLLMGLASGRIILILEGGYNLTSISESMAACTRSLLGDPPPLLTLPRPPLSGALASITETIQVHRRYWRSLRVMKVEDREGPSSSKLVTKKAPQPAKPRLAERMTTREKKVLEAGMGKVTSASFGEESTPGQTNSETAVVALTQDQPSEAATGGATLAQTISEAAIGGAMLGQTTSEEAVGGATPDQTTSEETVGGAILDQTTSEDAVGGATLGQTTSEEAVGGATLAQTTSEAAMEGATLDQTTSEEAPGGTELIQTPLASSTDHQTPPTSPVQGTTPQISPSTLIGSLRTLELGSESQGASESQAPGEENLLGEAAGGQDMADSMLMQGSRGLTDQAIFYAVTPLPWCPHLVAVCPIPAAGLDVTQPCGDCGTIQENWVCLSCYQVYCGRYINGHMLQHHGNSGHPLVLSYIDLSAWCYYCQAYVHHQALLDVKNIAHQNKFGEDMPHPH
Procedure: (§1) Base Reaction buffer: 50 mM Tris-HCl, pH8.0, 137 mM NaCl, 2.7 mM KCl, and 1 mM MgCl2. Add fresh: 1 mg/ml BSA, 1% DMSO
(§2) Fluorogenic HDAC General Substrate: 50 μM, Arg-His-Lys-Lys(Ac)
(§3) • 1. Deliver 2× enzyme in wells of reaction plate except No Enzyme control wells. Add buffer in No En wells. • 2. Deliver compounds in 100% DMSO into the enzyme mixture by Acoustic technology (Echo550; nanoliter range). Spin down and pre-incubation. • 3. Deliver 2× Substrate Mixture (Fluorogenic HDAC Substrate and co-factor if applicable) in all reaction wells to initiate the reaction. Spin and shake. • 4. Incubate for 30 min for Class 2A, 1 hr for HDAC1, 2, 3, and 6, and 2 hr for the rest of HDACs and SIRTs at 30° C. with seal. Development Step: • 5. Add Developer with Trichostatin A (or Nicotinamide for SIRTs) to stop the reaction and to generate fluorescent color. • 6. Kinetic measurement for 1.5 hr with Envision with 15 min interval. (Ex/Em=360/460 nm) • 7. Take endpoint reading for analysis after the development reaches plateau.

[3] = target: HDAC1 (Homo sapiens, UniProt Q13547); experiment: HDAC assay (fluorogenic substrate), HDAC1; type: biochemical; conditions: isoform selectivity table
Chain of HDAC1 (Q13547 whole entry, canonical isoform): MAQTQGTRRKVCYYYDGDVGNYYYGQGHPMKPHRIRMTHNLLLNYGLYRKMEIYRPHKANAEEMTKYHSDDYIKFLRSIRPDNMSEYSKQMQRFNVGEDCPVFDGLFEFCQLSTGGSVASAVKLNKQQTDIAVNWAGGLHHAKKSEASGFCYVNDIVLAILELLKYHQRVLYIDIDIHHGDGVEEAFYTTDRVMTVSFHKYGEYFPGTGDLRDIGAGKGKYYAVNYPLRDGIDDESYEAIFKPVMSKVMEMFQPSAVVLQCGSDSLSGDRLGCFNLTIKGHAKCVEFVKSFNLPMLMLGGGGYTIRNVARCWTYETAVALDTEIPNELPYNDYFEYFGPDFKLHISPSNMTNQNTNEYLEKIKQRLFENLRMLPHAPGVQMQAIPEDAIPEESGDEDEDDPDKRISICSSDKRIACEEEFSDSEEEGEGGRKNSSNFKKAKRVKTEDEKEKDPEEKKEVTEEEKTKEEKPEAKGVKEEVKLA
Procedure: as §1, §2, §3

[4] = system: Tubulin deacetylation in U266B1 human myeloma cell line; experiment: Tubulin deacetylation inhibition in U266B1 cells; type: cell-based; conditions: Cell Type U266B1
Procedure: Tubulin Deacetylation Inhibition
Example 1 was dissolved with DMSO at 10 mM stock. Reference compound TSA was dissolved with DMSO at 10 mM stock. U266B1 human myeloma cell line was purchased from American Type Culture Collection (Manassas, Va.). U266B1 cells were grown in RPMI medium and supplemented with 15% heat-inactivated fetal bovine serum (FBS), 100 μg/ml penicillin, and 100 μg/ml streptomycin. Cultures were maintained at 37° C. in a humidified atmosphere of 5% CO2 and 95% air. 12% Bis-Tris gel and nitrocellulose membrane were purchased from Thermo Fisher. Anti-acetylated-Tubulin antibody (Catalogue #T7451) was purchased from Sigma-Aldrich. Anti-α-Tubulin antibody (Catalogue #sc-12462-R) antibody was purchased from Santa Cruz Biotechnology. Anti-Acetylated Histone H3 (K9) (Catalogue #9649) and anti-Histone H3 (Catalogue #3638) antibodies were purchased from Cell Signaling Technology. Anti-rabbit IgG IRDye 680RD or anti-mouse IgG IRDye 800CW secondary antibodies were purchased from LI-COR.

[5] = target: HDAC3 (Homo sapiens, UniProt O15379); experiment: HDAC assay (fluorogenic substrate), HDAC3; type: biochemical; conditions: isoform selectivity table
Chain of HDAC3 (O15379 whole entry, canonical isoform): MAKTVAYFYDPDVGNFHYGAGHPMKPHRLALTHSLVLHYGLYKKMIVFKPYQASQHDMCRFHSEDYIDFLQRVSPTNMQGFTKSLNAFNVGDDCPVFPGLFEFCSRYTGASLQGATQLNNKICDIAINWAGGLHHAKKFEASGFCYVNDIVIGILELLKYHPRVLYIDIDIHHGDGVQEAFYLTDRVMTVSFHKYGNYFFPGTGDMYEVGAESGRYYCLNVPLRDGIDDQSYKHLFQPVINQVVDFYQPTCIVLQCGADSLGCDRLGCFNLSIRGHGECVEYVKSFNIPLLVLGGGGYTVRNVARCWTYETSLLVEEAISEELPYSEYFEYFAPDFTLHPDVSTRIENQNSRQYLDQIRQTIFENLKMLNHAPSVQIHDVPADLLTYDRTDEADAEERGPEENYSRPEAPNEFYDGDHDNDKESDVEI
Chain of HDAC3 (Q9Y618 395-489 partner limits assumed): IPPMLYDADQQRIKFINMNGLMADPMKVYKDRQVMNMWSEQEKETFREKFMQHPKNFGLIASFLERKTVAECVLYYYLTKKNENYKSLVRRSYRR
Procedure: as §1, §2, §3

[6] = target: HDAC2 (Homo sapiens, UniProt Q92769); experiment: HDAC assay (fluorogenic substrate), HDAC2; type: biochemical; conditions: isoform selectivity table
Chain of HDAC2 (Q92769 whole entry, canonical isoform): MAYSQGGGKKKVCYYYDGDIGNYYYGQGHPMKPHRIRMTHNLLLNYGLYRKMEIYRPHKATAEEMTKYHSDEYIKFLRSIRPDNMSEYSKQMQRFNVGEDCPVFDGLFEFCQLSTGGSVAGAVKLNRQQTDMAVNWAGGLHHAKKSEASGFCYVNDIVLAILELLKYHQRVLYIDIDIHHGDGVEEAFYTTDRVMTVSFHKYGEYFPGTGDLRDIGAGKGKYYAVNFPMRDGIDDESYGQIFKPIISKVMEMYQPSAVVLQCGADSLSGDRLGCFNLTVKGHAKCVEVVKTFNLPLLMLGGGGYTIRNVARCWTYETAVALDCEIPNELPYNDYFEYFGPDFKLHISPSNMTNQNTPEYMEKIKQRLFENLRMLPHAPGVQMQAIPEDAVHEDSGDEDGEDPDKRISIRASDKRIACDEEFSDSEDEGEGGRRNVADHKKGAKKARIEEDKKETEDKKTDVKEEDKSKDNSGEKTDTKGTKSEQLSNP
Procedure: as §1, §2, §3

AUC(0-t) [1]: 5820 ng·h/mL
Cmax [1]: 1450 ng/mL
half-life ([1]; read-out: T1/2 h (converted)): 1.75 h
inhibition at 10 µM [2]: > 90%
% HDAC6 Inhibition @ 10 uM ([2]; 10 uM, isoform selectivity table): >90%
inhibition at 10 µM [3]: < 20%
IC50 [4]: 2.7 µM
inhibition at 10 µM [5]: < 10%
inhibition at 10 µM [6]: < 10%
SMILES: FC(F)c1nnc(-c2cnc(Nc3cc(-c4ccccc4)c4nc[nH]c4c3)nc2)o1 [Example 1, N-(5-(5-(difluoromethyl)-1,3,4-oxadiazol-2-yl)pyrimidin-2-yl)-4-phenyl-1H-benzo[d]imidazol-6-amine]
